Data set [1] in a line: Absorption in a Caco-2 cells model. Format: in vitro ADME. The settings on record: human. On the procedure: Absorption of the compounds of formula (I) was tested in a Caco-2 cells model (Gastroenterology 1989, 96, 736): […]
The subject of data set [2] is 14C-cholesterol absorption. Description: In vivo testing of cholesterol absorption inhibitors (A). To be noted: 0.2 μmol/kg, gavage, procedure A, mice. More on the design: species or system C57BL/6 female mice. Here is the method: In vivo Testing of Cholesterol Absorption Inhibitors (A)
C57BL/6 female mice were maintained on regular chow diet and housed in individual cages to collect faeces. Mice were fasted for 3 hours and then gavaged with vehicle or compound. Half an hour later the mice were gavaged with radiolabelled cholesterol. Six hours after the ^14C-cholesterol gavage blood samples were taken via the tail and plasma prepared to determine how much cholesterol were absorbed. 24 hours after the gavage of ^14C-cholesterol the mice were bled and plasma were prepared for analysis. Faeces were collected for 24 hours to assess absorption efficiency.

In turn, `O=C(COc1ccc([C@@H]2[C@@H](SCC(O)c3ccc4c(c3)OCO4)C(=O)N2c2ccc(F)cc2)cc1)NCC(=O)N[C@H](CC1CCCCC1)C(=O)O` (single isomer, unassigned) [Example 13, N-({4-[(2R,3R)-3-{[(2R or S)-2-(1,3-benzodioxol-5-yl)-2-hydroxyethyl]thio}-1-(4-fluorophenyl)-4-oxoazetidin-2-yl]phenoxy}acetyl)glycyl-3-cyclohexyl-D-alanine] displayed a Papp in data set [1] of 0.05 ×10⁻⁶ cm/s. On to `CC(C)(C)[C@@H](NC(=O)CNC(=O)COc1ccc([C@@H]2[C@@H](SCC(O)c3ccc4c(c3)OCCO4)C(=O)N2c2ccc(F)cc2)cc1)C(=O)O` (stereo partly drawn) [Example 1, N-({4-[(2R,3R)-3-{[2-(2,3-dihydro-1,4-benzodioxin-6-yl)-2-hydroxyethyl]thio}-1-(4-fluorophenyl)-4-oxoazetidin-2-yl]phenoxy}acetyl)glycyl-3-methyl-D-valine], for which the “inhibition of 14C-cholesterol absorption” value in data set [2] is recorded as 61%. In data set [1], this compound returned a Papp of 0.02 ×10⁻⁶ cm/s. In the case of `CC(C)(C)[C@@H](NC(=O)CNC(=O)COc1ccc([C@@H]2[C@@H](SCC(O)c3ccc4c(c3)OCO4)C(=O)N2c2ccc(F)cc2)cc1)C(=O)O` (stereo partly drawn) [Example 3, N-({4-[(2R,3R)-3-{[2-(1,3-Benzodioxol-5-yl)-2-hydroxyethyl]thio}-1-(4-fluorophenyl)-4-oxoazetidin-2-yl]phenoxy}acetyl)glycyl-3-methyl-D-valine], in data set [2], the “inhibition of 14C-cholesterol absorption” value is given as 67%.

Broadly, the Papp is a coefficient for how fast a substance crosses the barrier.

These data come from US7906502B2, “2-azetidinone derivatives as cholesterol absorption inhibitors for the treatment of hyperlipidaemic conditions” (AstraZeneca AB, priority 2005, dated 2011).
